Assay results published in patent publication US20260041744A1, “Methods for Treating Pompe Disease” (Amicus Therapeutics, Inc., priority 2022, published 2026).
Entries after “also recorded” stand apart in the source; their conditions may differ.

Legend:
[1] = molecular target: T1, CIMPR (Homo sapiens, UniProt P11717); assay: CIMPR plate binding assay
Protocol: In addition to having a greater percentage of rhGAA that can bind to the CIMPR, it is important to understand the quality of that interaction. LUMIZYME® and ATB200 receptor binding was determined using a CIMPR plate binding assay. Briefly, CIMPR-coated plates were used to capture GAA. Varying concentrations of rhGAA were applied to the immobilized receptor and unbound rhGAA was washed off. The amount of remaining rhGAA was determined by GAA activity.
N-glycan analysis via MALDI-TOF mass spectrometry confirmed that on average each ATB200 molecule contains at least one natural bis-M6P N-glycan structure.

[2] = system: normal and Pompe fibroblast cell lines; assay: Cellular uptake of rhGAA into fibroblasts (16-hr incubation, internalized GAA by 4MU-α-Glucoside hydrolysis); format: cell-based, human
Protocol: The relative cellular uptake of ATB200 and LUMIZYME® rhGAA were compared using normal and Pompe fibroblast cell lines. Comparisons involved 5-100 nM of ATB200 according to the disclosure with 10-500 nM conventional rhGAA product LUMIZYME®. After 16-hr incubation, external rhGAA was inactivated with TRIS base and cells were washed 3-times with PBS prior to harvest. Internalized GAA measured by 4MU-α-Glucoside hydrolysis and was graphed relative to total cellular protein and the results appear in FIGS. 11A-11C.
ATB200 was also shown to be efficiently internalized into cells. […] ATB200 saturates cellular receptors at about 20 nM, while about 250 nM of LUMIZYME® is needed to saturate cellular receptors.

[3] = system: Gaa KO mice; assay: Single fiber analysis (LAMP1/LC3 co-immunofluorescence, white gastrocnemius); format: in vivo, mouse; conditions: single fibers
Excerpt: FIG. 17 depicts co-immunofluorescent staining of LAMP1 (green) (see for example, “B”) and LC3 (red) (see, for example, “A”) in single fibers isolated from the white gastrocnemius of Gaa KO mice treated with a vehicle, alglucosidase alfa, or ATB200. “C” depicts clearance of autophagic debris and absence of enlarged lysosome. A minimum of 30 fibers were examined from each animal.
As a result, a significant portion of muscle fibers analyzed (36-60%) from ATB200-treated mice appeared normal or near-normal.

[4] = system: Gaa KO mice; assay: Muscle fiber size (minimum Feret's diameter) in quadriceps, 12 biweekly injections; format: in vivo, mouse; conditions: 20 mg/kg, 12 biweekly bolus injections
Protocol: FIG. 78 is a graph showing the effect of long-term cipaglucosidase alfa administration (20 mg/kg, 12 biweekly bolus injections) versus alglucosidase alfa on muscle fiber size by mean minimum fiber diameter (FD) in Gaa KO mouse quadriceps.
Gaa mice, like patients with Pompe disease, show a decrease in muscle fiber size as a consequence of muscle atrophy.

[5] = molecular target: T1, CIMPR; assay: CIMPR Overlay Assay (far-western blot); format: binding
Protocol: The CIMPR Overlay Assay is a variation on a far-western blot where proteins are separated on an SDS-PAGE, transferred to a nitrocellulose membrane, and incubated with purified CIMPR in the place of a primary antibody as in a conventional western blot. Binding of CIMPR to M6P-containing glycans on rhGAA proteins is then visualized by an anti-CIMPR antibody.

[6] = system: Pompe patient fibroblasts; assay: Cellular uptake into Pompe patient fibroblasts (20 nM rhGAA, 18-hr); format: cell-based, human
Protocol: The relative cellular uptake into Pompe patient fibroblasts of dephosphorylated cipaglucosidase alfa compared to mock-treated cipaglucosidase alfa and mock-treated alglucosidase alfa was assessed. Comparisons at a concentration of 20 nM of rhGAA was used to mimic the interstitial concentration of cipaglucosidase alfa that crosses into tissues, as shown in FIG. 77A. After an 18-hr incubation for enzyme uptake, cells were washed for 2 hours, harvested, lysed, and then processed for GAA activity and western blot analysis. Internalized GAA measured by 4MU-a-Glucoside hydrolysis and was graphed relative to total cellular protein and the results appear in FIG. 77B.
However, cell uptake of PAP-treated cipaglucosidase alfa is abolished.

[7] = system: 4MU-a-Glucoside hydrolysis (GAA activity); assay: GAA enzyme activity by 4MU-a-Glucoside hydrolysis after PAP treatment; format: biochemical, human; conditions: PAP 18 hours
Protocol: Removal of phosphoesters mono- and bis-M6P was completed by the enzyme purple acid phosphatase (PAP). PAP hydrolyzes phosphate esters and anhydrides. […] Cipaglucosidase alfa was treated with PAP for 18 hours, and alglucosidase alfa in the same reaction conditions but without PAP addition was used as a mock-treated control. PAP treatment results in complete removal of the bis-M6P peak and nearly all of the mono-M6P peak from the cipaglucosidase alfa LC-FLD chromatogram. Additional peaks are clearly observed in the neutral high mannose glycan region resulting from the removal of phosphates from mono- and bis-phosphorylated high mannose glycans.

[8] = Cipaglucosidase alfa pharmacokinetics in ERT-experienced adult patients with LOPD; format: in vivo, human
[9] = system: animals; conditions: in vivo
Excerpt: It is not known whether miglustat is secreted in breast milk. A risk to newborns/breastfed infants cannot be ruled out. The developmental and health benefits of breastfeeding should be considered, as well as the clinical need for the mother to receive co-administration therapy with cipaglucosidase alfa and miglustat, and any adverse reactions experienced by the breastfed child potentially related to the co-administration of cipaglucosidase alfa and miglustat or the underlying maternal condition. In some embodiments, breastfeeding is not allowed while taking cipaglucosidase alfa and miglustat. There are no clinical data on the effects of co-administration therapy of cipaglucosidase alfa and miglustat on fertility.

[10] = system: adults with Pompe disease; assay: Study ATB200-02 (20 mg/kg cipaglucosidase alfa IV + 260 mg miglustat): 6MWT (6MWD, % predicted 6MWD); format: in vivo, human;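 further: Open-label Phase I/II trial, ambulatory cohorts only, values are changes from baseline or counts relative to the baseline walk test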
Protocol: The change from baseline (CFBL) in 6MWD, % predicted sitting FVC, manual muscle test (MMT) and biomarkers—urine glucose tetrasaccharide (Hex4) and serum creatine kinase (CK)—were assessed at regular intervals.
The 4 cohorts in the study are as follows: • Cohort 1: ERT-experienced (2 to 6 years) ambulatory subjects (11 subjects) • Cohort 2: ERT-experienced (≥2 years) non-ambulatory subjects (6 subjects) • Cohort 3: ERT-naïve ambulatory subjects (6 subjects)· • Cohort 4: ERT-experienced (≥7 years) ambulatory subjects (6 subjects)
In Study ATB200-02, motor function was evaluated in all ambulatory subjects (ie, Cohorts 1, 3, and 4) (Table 23, FIGS. 46A-46D).

[11] = human, in vivo
Excerpt: Blood sampling for plasma GAA protein and miglustat concentrations were taken for cohort 1 (ERT-experienced) and cohort 3 (ERT-naïve) only. To prevent any undue burden on patients, blood sampling for PK was not performed for non-ambulatory patients (cohort 2) and, due to similarity to cohort 1, those in cohort 4.

[12] = system: adult subjects with LOPD; assay: Study ATB200-07 (OLE of PROPEL): 6MWD and % predicted 6MWD; format: in vivo, human; conditions: Study ATB200-03/07, excluding the outlier
Excerpt: (§1) The study doses and schedule are maintained from Study ATB200-03.
(§2) Efficacy data are presented in this summary as change from the baseline of Study ATB200-03 (OLE-ES Population).

[13] = system: adult subjects with LOPD; assay: Study ATB200-07 (OLE): sitting % predicted FVC; format: in vivo, human; conditions: Study ATB200-03/07, excluding the outlier
Excerpt: as §1, §2

[14] = molecular target: ATB200 (Homo sapiens, UniProt P10253); assay: Thermostability assay using SYPRO Orange
[15] = system: adults with Pompe disease; assay: Study ATB200-02: sitting % predicted FVC
Protocol: Four cohorts of patients with Pompe disease were enrolled in the ATB200-02 study: • Cohort 1: ERT-experienced, aged 18-65 years, with 2-6 years prior ERT with 20 mg/kg alglucosidase alfa every 2 weeks (n=11) • Cohort 2: Non-ambulatory ERT-experienced, aged 18-65 years, with ≥2 years prior ERT with 20 mg/kg alglucosidase alfa every 2 weeks (n=6)· • Cohort 3: ERT-naïve, aged 18-65 years (n=6). • Cohort 4: ERT-experienced, aged 18-75 years, with ≥7 years prior ERT with 20 mg/kg alglucosidase alfa every 2 weeks (n=6)
The change from baseline (CFBL) in 6MWD, % predicted sitting FVC, manual muscle test (MMT) and biomarkers—urine glucose tetrasaccharide (Hex4) and serum creatine kinase (CK)—were assessed at regular intervals. Data with up to 36 months of follow-up in ERT-experienced and ERT-naïve patients is provided herein. […] Due to the staggered timing of patient enrollment, the number of patients with data currently available decreases at later time-points in this ongoing study.

[16] = 20 mg/kg in combination with Miglustat 260 mg
[17] = ERT-experienced, Study ATB200-02, Cohort 1 and 4 combined
[18] = ERT-naïve, Study ATB200-02, Cohort 3
[19] = ERT-experienced, Study ATB200-02

T1 sequence (P11717 41-2491, species assumed): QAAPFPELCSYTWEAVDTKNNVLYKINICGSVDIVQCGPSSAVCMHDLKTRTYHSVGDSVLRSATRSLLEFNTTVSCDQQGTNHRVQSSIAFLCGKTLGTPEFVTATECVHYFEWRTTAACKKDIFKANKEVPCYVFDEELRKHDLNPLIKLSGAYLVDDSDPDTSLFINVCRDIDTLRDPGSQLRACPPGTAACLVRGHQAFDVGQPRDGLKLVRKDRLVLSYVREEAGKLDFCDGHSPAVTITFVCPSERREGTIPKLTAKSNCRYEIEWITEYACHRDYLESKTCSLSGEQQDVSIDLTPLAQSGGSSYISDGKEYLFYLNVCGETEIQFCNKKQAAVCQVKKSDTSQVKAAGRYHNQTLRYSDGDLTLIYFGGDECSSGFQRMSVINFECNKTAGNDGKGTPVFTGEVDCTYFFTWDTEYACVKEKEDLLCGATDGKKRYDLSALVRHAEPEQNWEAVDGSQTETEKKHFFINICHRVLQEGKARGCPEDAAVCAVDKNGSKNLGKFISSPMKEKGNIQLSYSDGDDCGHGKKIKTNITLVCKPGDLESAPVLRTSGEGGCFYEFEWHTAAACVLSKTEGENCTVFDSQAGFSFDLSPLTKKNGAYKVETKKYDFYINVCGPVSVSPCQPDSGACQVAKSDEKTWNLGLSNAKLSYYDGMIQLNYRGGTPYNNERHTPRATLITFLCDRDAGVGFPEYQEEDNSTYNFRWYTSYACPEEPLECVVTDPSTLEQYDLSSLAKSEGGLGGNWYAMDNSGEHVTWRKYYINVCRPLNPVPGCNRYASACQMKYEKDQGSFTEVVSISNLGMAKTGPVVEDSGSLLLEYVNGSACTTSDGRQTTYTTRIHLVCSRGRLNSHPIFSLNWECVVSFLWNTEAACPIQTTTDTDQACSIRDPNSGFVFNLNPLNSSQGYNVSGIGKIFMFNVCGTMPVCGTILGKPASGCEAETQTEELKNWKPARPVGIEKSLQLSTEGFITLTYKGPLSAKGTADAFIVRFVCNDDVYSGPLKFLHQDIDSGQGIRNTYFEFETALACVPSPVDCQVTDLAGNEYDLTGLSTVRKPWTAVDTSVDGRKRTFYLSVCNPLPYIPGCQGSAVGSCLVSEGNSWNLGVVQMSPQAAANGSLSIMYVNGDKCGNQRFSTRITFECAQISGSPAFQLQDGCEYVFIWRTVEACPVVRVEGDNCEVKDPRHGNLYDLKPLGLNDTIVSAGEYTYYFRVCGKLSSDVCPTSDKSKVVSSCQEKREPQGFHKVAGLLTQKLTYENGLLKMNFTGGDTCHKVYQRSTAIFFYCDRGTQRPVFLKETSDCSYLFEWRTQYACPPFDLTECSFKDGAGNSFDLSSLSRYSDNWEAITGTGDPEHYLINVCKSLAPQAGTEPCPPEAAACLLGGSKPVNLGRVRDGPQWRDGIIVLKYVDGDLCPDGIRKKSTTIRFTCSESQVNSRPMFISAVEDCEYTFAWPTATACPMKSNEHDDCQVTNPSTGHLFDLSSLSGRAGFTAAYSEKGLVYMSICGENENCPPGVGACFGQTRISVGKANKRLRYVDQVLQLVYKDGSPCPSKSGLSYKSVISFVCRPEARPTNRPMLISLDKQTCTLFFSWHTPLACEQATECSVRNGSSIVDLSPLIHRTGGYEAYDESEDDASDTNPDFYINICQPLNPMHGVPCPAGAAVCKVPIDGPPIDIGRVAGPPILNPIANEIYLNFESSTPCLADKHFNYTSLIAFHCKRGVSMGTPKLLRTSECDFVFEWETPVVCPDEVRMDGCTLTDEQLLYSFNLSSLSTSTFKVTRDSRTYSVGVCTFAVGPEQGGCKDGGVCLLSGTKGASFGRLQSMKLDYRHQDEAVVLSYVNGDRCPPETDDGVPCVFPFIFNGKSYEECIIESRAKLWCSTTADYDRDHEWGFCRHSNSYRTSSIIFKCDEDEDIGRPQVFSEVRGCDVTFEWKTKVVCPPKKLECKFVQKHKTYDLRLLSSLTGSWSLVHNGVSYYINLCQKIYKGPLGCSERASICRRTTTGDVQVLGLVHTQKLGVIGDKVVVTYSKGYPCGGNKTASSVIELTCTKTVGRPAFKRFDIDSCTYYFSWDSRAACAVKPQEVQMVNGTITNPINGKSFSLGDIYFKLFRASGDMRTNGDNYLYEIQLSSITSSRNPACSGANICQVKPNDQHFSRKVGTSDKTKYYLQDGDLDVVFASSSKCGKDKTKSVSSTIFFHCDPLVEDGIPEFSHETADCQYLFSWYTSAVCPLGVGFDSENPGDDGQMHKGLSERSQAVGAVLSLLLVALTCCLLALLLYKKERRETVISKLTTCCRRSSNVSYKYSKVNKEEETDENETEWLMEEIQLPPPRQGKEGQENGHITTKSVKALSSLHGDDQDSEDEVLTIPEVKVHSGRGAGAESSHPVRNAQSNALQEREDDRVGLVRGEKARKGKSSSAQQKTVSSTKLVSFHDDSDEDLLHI

ATB200: recombinant human acid α-glucosidase with a high content of N-glycans bearing mono-M6P and bis-M6P, produced from GA-ATB200 CHO cell line
CIMPR binding compared with LUMIZYME ([1]; CIMPR-coated plates): bound to CIMPR significantly better than LUMIZYME®
Kd ([1]; M6P receptor plate binding assays): 2 to 4 nM
uptake efficiency constant (Kuptake) ([2]; extrapolated from uptake curves): 2-3 nm
internalization into fibroblasts ([2]; normal and Pompe fibroblast cells): internalized to a greater degree than the conventional rhGAA product LUMIZYME®
rhGAA concentration that saturates cellular receptors ([2]; normal and Pompe fibroblasts): about 20 nM
Fibers with Normal or Near-normal Appearance [3]: 36-60%
Lysosome Enlargement [3]: dramatically decreased lysosome size; also recorded: Dramatic size
muscle fiber size vs alglucosidase alfa [4]: significantly improved muscle fiber size
CIMPR binding in overlay assay [5]: binds with high affinity to CIMPR as shown by an intense band
cellular uptake into Pompe fibroblasts [6]: better cellular uptake compared to alfaglucosidase alfa
enzyme activity after PAP treatment [7]: retaining the enzyme activity
AUC0-inf, mean [8, 16]: 1812 µg·h/mL
Cmax, mean [8, 16]: 345 µg/mL
AUC0-inf, mean ([8]; 20 mg/kg without Miglustat): 1410 µg·h/mL
Cmax, mean ([8]; 20 mg/kg without Miglustat): 325 µg/mL
excretion in milk [9]: excretion of cipaglucosidase alfa in milk
fertility, preclinical data [9]: did not reveal any significant adverse reactions
6MWD Baseline, Mean [10, 17]: 393.5
6MWD CFBL M12 (W 52) Mean [10, 17]: 33.5
6MWD CFBL M24 (W 104) Mean [10, 17]: 25.2
6MWD Baseline, Mean [10, 18]: 396.0
6MWD CFBL M12 (W 52) Mean [10, 18]: 57.0
6MWD CFBL M24 (W 104) Mean [10, 18]: 54.4
median time of peak signature peptide T09 concentrations (tmax) [11]: approximately 4 hours
6MWD Baseline, Mean ([12]; ERT-experienced): 342.4
6MWD CFBL M12 (W 52) Mean ([12]; ERT-experienced): 16.3
6MWD CFBL M24 (W 104) Mean ([12]; ERT-experienced): 14.2
6MWD Baseline, Mean ([12]; ERT-naïve): 393.6
6MWD CFBL M12 (W 52) Mean ([12]; ERT-naïve): 33.4
6MWD CFBL M24 (W 104) Mean ([12]; ERT-naïve): 38.8
% Predicted FVC Baseline Mean ([13]; ERT-experienced): 67.7 % predicted
% Predicted FVC CFBL M12 (W 52) Mean ([13]; ERT-experienced): 0.1 % predicted
% Predicted FVC CFBL M24 (W 104) Mean ([13]; ERT-experienced): −0.6 % predicted
% Predicted FVC Baseline Mean ([13]; ERT-naïve): 80.2 % predicted
% Predicted FVC CFBL M12 (W 52) Mean ([13]; ERT-naïve): −4.7 % predicted
% Predicted FVC CFBL M24 (W 104) Mean ([13]; ERT-naïve): −4.8 % predicted
Tm ([14]; pH 5.2): 67.3 °C
Tm ([14]; pH 7.4): 56.2 °C
Tm ([14]; pH 7.4 + 10 μM miglustat): 61.6 °C
Tm ([14]; pH 7.4 + 30 μM miglustat): 62.9 °C
Tm ([14]; pH 7.4 + 100 μM miglustat): 66.0 °C
% Predicted FVC Baseline Mean [15, 19]: 57.4 % predicted
% Predicted FVC CFBL M12 (W 52) Mean [15, 19]: −1.2 % predicted
% Predicted FVC CFBL M24 (W 104) Mean [15, 19]: 1.0 % predicted
% Predicted FVC Baseline Mean [15, 18]: 57.2 % predicted
% Predicted FVC CFBL M12 (W 52) Mean [15, 18]: 3.2 % predicted
% Predicted FVC CFBL M24 (W 104) Mean [15, 18]: 4.7 % predicted
